Reference: patent publication US11739054B2 (priority 2017, dated 2023)

Assays:
Swiss Webster mice [1] = test: METH-induced locomotor activity assay in vaccinated mice; format: in vivo; settings: Example 4; vaccinated mice challenged with METH
Protocol: On day 42, vaccinated mice were assessed in a locomotion assay by acclimating them for 1 h in a plastic cage (10.5 in.×19 in.×8 in.) with clear ventilated acrylic top. Mice were then quickly removed and injected with saline or 0.5, 1, 2, or 4 mg/kg METH before being returned to their cages; cages were wiped down with dry paper towels to remove excess debris while mice were being injected. The mice were then returned to the cage to be recorded and tracked by overhead camera using ANY-Maze video tracking software (Stoelting Co., Wood Dale, Ill.). Sessions were run during the middle of the dark cycle in a 4.6×4.6 m^2 room with a single 30 W upward-directed light source, and then repeated on mice after a two-day washout period until all mice received all MA doses. Distance traveled (m) and time spent immobile (s; 80% pixel consistency for at least 5 s threshold) were measured and analyzed via Prism 6 software, using a two-way repeated-measures ANOVA with Bonferroni posthoc corrected comparisons. Significance was set at a=0.05 and data is represented as mean±SEM.
The mice were monitored for swelling, redness or formation of granulomas at the injection site. The mice were bled on days 21 and 42. The anti-METH IgG antibody titers were determined by ELISA. On day 45, mice were given a 2 mg/kg dose of METH and their locomotor activity was monitored.

Swiss Webster mice [2] = format: in vivo; settings: Example 4; hapten conjugated to TT, 75 μg with 50 μg CpG + 750 μg Alhydrogel/alum, s.c. days 0, 14, 28
Swiss Webster mice [3] = settings: mouse, in vivo, sc

Molecule: CN[C@@H](CCC(=O)NCCCCCCC(=O)O)Cc1ccccc1 [I-66]
- METH-induced locomotor activity (Swiss Webster mice [1]): worked as well as, and possibly better than, MH-6
- anti-METH antibody titers (ELISA) (Swiss Webster mice [2]): at least comparable to, and possibly greater than, the MH-6 hapten

Molecule: TT: tetanus toxoid scaffold protein
- immune response (Swiss Webster mice [3]): potent immune responses
